Assay results reported in patent US8791108B2, “Inhibitors of human immunodeficiency virus replication” (priority 2011, dated 2014).
Read-outs that look alike come from different tables or passages of the source.

System: recombinant NL-Rluc virus
Experiment: Inhibition of HIV replication (NL-RLuc luciferase reporter virus, MT-2 cells)
Assay type: cell-based
Details: Human immunodeficiency virus 1, MT2, 120 h

SMILES	EC50 (read-out: Activity) [µM]	EC50 (read-out: EC50 μM) [µM]
Cc1nc2cc(C(=O)NCCOC(C)C)nn2c(-c2cc(F)c3c(c2C)CCCO3)c1[C@H](OC(C)(C)C)C(=O)O [Example 102, (2S)-2-(tert-butoxy)-2-(7-(8-fluoro-5-methylchroman-6-yl)-2-((2-isopropoxyethyl)carbamoyl)-5-methylpyrazolo[1,5-a]pyrimidin-6-yl)acetic acid]	< 0.1	–
Cc1nc2cc(C(=O)NCc3ccc(F)cc3)nn2c(-c2cc(F)c3c(c2C)CCCO3)c1[C@H](OC(C)(C)C)C(=O)O [Example 1, (2S)-2-(tert-butoxy)-2-(7-(8-fluoro-5-methylchroman-6-yl)-2-((4-fluorobenzyl)carbamoyl)-5-methylpyrazolo[1,5-a]pyrimidin-6-yl)acetic acid]	< 0.1	0.053
Cc1nc2cc(C(=O)NCCc3cccc(Cl)c3)nn2c(-c2cc(F)c3c(c2C)CCCO3)c1[C@H](OC(C)(C)C)C(=O)O [Example 81, (2S)-2-(tert-butoxy)-2-(2-((3-chlorophenethyl)carbamoyl)-7-(8-fluoro-5-methylchroman-6-yl)-5-methylpyrazolo[1,5-a]pyrimidin-6-yl)acetic acid]	< 0.1	–
Cc1nc2cc(C(=O)N(C)Cc3cccc(F)c3)nn2c(-c2cc(F)c3c(c2C)CCCO3)c1[C@H](OC(C)(C)C)C(=O)O [Example 23]	< 0.1	–
CCCOCCNC(=O)c1cc2nc(C)c([C@H](OC(C)(C)C)C(=O)O)c(-c3cc(F)c4c(c3C)CCCO4)n2n1 [Example 133, (2S)-2-(tert-butoxy)-2-(7-(8-fluoro-5-methylchroman-6-yl)-5-methyl-2-((2-propoxyethyl)carbamoyl)pyrazolo[1,5-a]pyrimidin-6-yl)acetic acid]	0.1 to 1	0.185
Cc1nc2cc(C(=O)NS(=O)(=O)c3ccccc3)nn2c(-c2cc(F)c3c(c2C)CCCO3)c1[C@H](OC(C)(C)C)C(=O)O [Example 13, (2S)-2-(tert-butoxy)-2-(7-(8-fluoro-5-methylchroman-6-yl)-5-methyl-2-((phenylsulfonyl)carbamoyl)pyrazolo[1,5-a]pyrimidin-6-yl)acetic acid]	> 1	40
Cc1nc2cc(C(=O)NCc3ccc(F)cc3-n3ncnc3C)nn2c(-c2cc(F)c3c(c2C)CCCO3)c1C(OC(C)(C)C)C(=O)O (stereo in doubt) [Example 9, (2S)-2-(tert-butoxy)-2-(2-((4-fluoro-2-(5-methyl-1H-1,2,4-triazol-1-yl)benzyl)carbamoyl)-7-(8-fluoro-5-methylchroman-6-yl)-5-methylpyrazolo[1,5-a]pyrimidin-6-yl)acetic acid]	0.1 to 1	–
Cc1nc2cc(C(=O)NCc3ccc(F)c(C(F)F)c3)nn2c(-c2cc(F)c3c(c2C)CCCO3)c1[C@H](OC(C)(C)C)C(=O)O [Example 27]	< 0.1	–
Cc1nc2cc(C(=O)N3CCC(c4ccc(Cl)cc4)CC3)nn2c(-c2cc(F)c3c(c2C)CCCO3)c1[C@H](OC(C)(C)C)C(=O)O [Example 86, (2S)-2-(tert-butoxy)-2-(2-(4-(4-chlorophenyl)piperidine-1-carbonyl)-7-(8-fluoro-5-methylchroman-6-yl)-5-methylpyrazolo[1,5-a]pyrimidin-6-yl)acetic acid]	< 0.1	–
Cc1cc(CNC(=O)c2cc3nc(C)c([C@H](OC(C)(C)C)C(=O)O)c(-c4ccc5c(c4Cl)NCCO5)n3n2)ccc1F [Example 141, (2S)-2-(tert-Butoxy)-2-(7-(5-chloro-3,4-dihydro-2H-benzo[b][1,4]oxazin-6-yl)-2-((4-fluoro-3-methylbenzyl)carbamoyl)-5-methylpyrazolo[1,5-a]pyrimidin-6-yl)acetic acid]	0.1 to 1	0.114
Cc1nc2cc(C(=O)NCCSC(C)(C)C)nn2c(-c2cc(F)c3c(c2C)CCCO3)c1[C@H](OC(C)(C)C)C(=O)O [Example 136, (2S)-2-(tert-butoxy)-2-(2-((2-(tert-butylthio)ethyl)carbamoyl)-7-(8-fluoro-5-methylchroman-6-yl)-5-methylpyrazolo[1,5-a]pyrimidin-6-yl)acetic acid]	< 0.1	–
Cc1nc2cc(C(=O)NCCCc3ccccc3)nn2c(-c2cc(F)c3c(c2C)CCCO3)c1[C@H](OC(C)(C)C)C(=O)O [Example 50]	< 0.1	–
Cc1nc2cc(C(=O)NCc3cccc(-c4ccccc4)c3)nn2c(-c2cc(F)c3c(c2C)CCCO3)c1[C@H](OC(C)(C)C)C(=O)O [Example 69, (2S)-2-(2-(([1,1′-biphenyl]-3-ylmethyl)carbamoyl)-7-(8-fluoro-5-methylchroman-6-yl)-5-methylpyrazolo[1,5-a]pyrimidin-6-yl)-2-(tert-butoxy)acetic acid]	< 0.1	–
Cc1nc2cc(C(=O)NCC3CC3)nn2c(-c2cc(F)c3c(c2C)CCCO3)c1[C@H](OC(C)(C)C)C(=O)O [Example 43, (2S)-2-(tert-butoxy)-2-(2-((cyclopropylmethyl)carbamoyl)-7-(8-fluoro-5-methylchroman-6-yl)-5-methylpyrazolo[1,5-a]pyrimidin-6-yl)acetic acid]	0.1 to 1	–
Cc1nc2cc(C(=O)NCc3ccc(Cl)cc3)nn2c(-c2cc(F)c3c(c2C)CCCO3)c1[C@H](OC(C)(C)C)C(=O)O [Example 46, (2S)-2-(tert-butoxy)-2-(2((4-chlorobenzyl)carbamoyl)-7-(8-fluoro-5-methylchroman-6-yl)-5-methylpyrazolo[1,5-a]pyrimidin-6-yl)acetic acid]	< 0.1	–
Cc1nc2cc(C(=O)NCCNc3ccccc3)nn2c(-c2cc(F)c3c(c2C)CCCO3)c1[C@H](OC(C)(C)C)C(=O)O [Example 47, (2S)-2-(tert-butoxy)-2-(7-(8-fluoro-5-methylchroman-6-yl)-5-methyl-2-((2-(phenylamino)ethyl)carbamoyl)pyrazolo[1,5-a]pyrimidin-6-yl)acetic acid]	0.1 to 1	0.281
Cc1nc2cc(C(=O)NCC3CCN(C(=O)OC(C)(C)C)CC3)nn2c(-c2cc(F)c3c(c2C)CCCO3)c1[C@H](OC(C)(C)C)C(=O)O [Example 59, (2S)-2-(tert-butoxy)-2-(2-(((1-(tert-butoxycarbonyl)piperidin-4-yl)methyl)carbamoyl)-7-(8-fluoro-5-methylchroman-6-yl)-5-methylpyrazolo[1,5-a]pyrimidin-6-yl)acetic acid]	0.1 to 1	–
Cc1nc2cc(C(=O)NCc3ccccc3C(F)(F)F)nn2c(-c2cc(F)c3c(c2C)CCCO3)c1[C@H](OC(C)(C)C)C(=O)O [Example 125, (2S)-2-(tert-butoxy)-2-(7-(8-fluoro-5-methylchroman-6-yl)-5-methyl-2-((2-(trifluoromethyl)benzyl)carbamoyl)pyrazolo[1,5-a]pyrimidin-6-yl)acetic acid]	< 0.1	–
Cc1nc2cc(C(=O)NCCc3nc4ccccc4s3)nn2c(-c2cc(F)c3c(c2C)CCCO3)c1[C@H](OC(C)(C)C)C(=O)O [Example 119, (2S)-2-(2-((2-(benzo[d]thiazol-2-yl)ethyl)carbamoyl)-7-(8-fluoro-5-methylchroman-6-yl)-5-methylpyrazolo[1,5-a]pyrimidin-6-yl)-2-(tert-butoxy)acetic acid]	< 0.1	–
Cc1nc2cc(C(=O)NCCC3CCN(Cc4ccccc4)CC3)nn2c(-c2cc(F)c3c(c2C)CCCO3)c1[C@H](OC(C)(C)C)C(=O)O [Example 72, (2S)-2-(2-((2-(1-benzylpiperidin-4-yl)ethyl)carbamoyl)-7-(8-fluoro-5-methylchroman-6-yl)-5-methylpyrazolo[1,5-a]pyrimidin-6-yl)-2-(tert-butoxy)acetic acid]	0.1 to 1	0.668
CON(Cc1ccc(F)cc1)C(=O)c1cc2nc(C)c([C@H](OC(C)(C)C)C(=O)O)c(-c3cc(F)c4c(c3C)CCCO4)n2n1 [Example 17, (2S)-2-(tert-butoxy)-2-(7-(8-fluoro-5-methylchroman-6-yl)-2-((4-fluorobenzyl)(methoxy)carbamoyl)-5-methylpyrazolo[1,5-a]pyrimidin-6-yl)acetic acid]	< 0.1	–
Cc1nc2cc(C(=O)NCc3ccc(S(N)(=O)=O)cc3)nn2c(-c2cc(F)c3c(c2C)CCCO3)c1[C@H](OC(C)(C)C)C(=O)O [Example 53, (2S)-2-(tert-butoxy)-2-(7-(8-fluoro-5-methylchroman-6-yl)-5-methyl-2-((4-sulfamoylbenzyl)carbamoyl)pyrazolo[1,5-a]pyrimidin-6-yl)acetic acid]	> 1	3.19
Cc1nc2cc(C(=O)N3CCN(CCN4CCOCC4)CC3)nn2c(-c2cc(F)c3c(c2C)CCCO3)c1[C@H](OC(C)(C)C)C(=O)O [Example 91, (2S)-2-(tert-butoxy)-2-(7-(8-fluoro-5-methylchroman-6-yl)-5-methyl-2-(4-(2-morpholinoethyl)piperazine-1-carbonyl)pyrazolo[1,5-a]pyrimidin-6-yl)acetic acid]	> 1	–
Cc1cc(CNC(=O)c2cc3nc(C)c(C(OC(C)(C)C)C(=O)O)c(-c4cc(F)c5c(c4C)CCCO5)n3n2)ccc1F (stereo in doubt) [Example 3, (2S)-2-(tert-Butoxy)-2-(2-((4-fluoro-3-methylbenzyl)carbamoyl)-7-(8-fluoro-5-methylchroman-6-yl)-5-methylpyrazolo[1,5-a]pyrimidin-6-yl)acetic acid]	< 0.1	0.032
Cc1nc2cc(C(=O)NCc3ccc(N(C)C)cc3)nn2c(-c2cc(F)c3c(c2C)CCCO3)c1[C@H](OC(C)(C)C)C(=O)O [Example 52, (2S)-2-(tert-butoxy)-2-(2-((4-(dimethylamino)benzyl)carbamoyl)-7-(8-fluoro-5-methylchroman-6-yl)-5-methylpyrazolo[1,5-a]pyrimidin-6-yl)acetic acid]	< 0.1	–
Cc1nc2cc(C(=O)NCCC(C)(C)C)nn2c(/C=C/CC(C)C)c1[C@H](OC(C)(C)C)C(=O)O [Example 150, (S,E)-2-(tert-Butoxy)-2-(2-((3,3-dimethylbutyl)carbamoyl)-5-methyl-7-(4-methylpent-1-en-1-yl)pyrazolo[1,5-a]pyrimidin-6-yl)acetic acid]	> 1	1.2
Cc1nc2cc(C(=O)NCc3ccc4c(c3)OCO4)nn2c(-c2cc(F)c3c(c2C)CCCO3)c1[C@H](OC(C)(C)C)C(=O)O [Example 34, (2S)-2-(2-((benzo[d][1,3]dioxol-5-ylmethyl)carbamoyl)-7-(8-fluoro-5-methylchroman-6-yl)-5-methylpyrazolo[1,5-a]pyrimidin-6-yl)-2-(tert-butoxy)acetic acid]	< 0.1	–
